Data published in the supplement of paper PMC11208160.

experiment: recombinant barcode read abundance after kanamycin selection (control-corrected) (log10(CPM+1)); higher = more efficient recombination; sequences stand for … in AGTGCAGAGAAAATCGGCCAGTTTTCTCTGCCTGCAGTCCGCATGCCGT…AGATTTATGCAGCGGACTGCCTTTCTCCCAAAGTGATAAACCGGACAGTATCATGGACCGGTTTTCCCGGTAATCCGTATTTGCAAGGTTGGTTTCACT; site = the 11-nt target
Summary of the method: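 Each value is log10(CPM+1). It describes recombination efficiency, taken as averaged, control-corrected counts per million of barcodes at recombinant junctions. The pooled E. coli library paired targets with IS621 bridge RNA target-binding loops, was co-electroporated with a donor plasmid, and was plated twice on chloramphenicol/ampicillin LB agar (control) and twice on chloramphenicol/ampicillin/kanamycin containing 0.1 mM IPTG.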
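Also: IS621 recombinase and bridge RNA in Escherichia coli cells.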

“TAGACGACTTGGGTTCTAACCTGTTGCTT (site TAGCCGACTAA)” and “TAGACGACTTGGGTTCTAACCTGTTGCTT (site TAGGCGACTAA)” are within 0.2 log units of each other in “recombinant barcode read abundance (log10)” value: 0.0758 for the first, 0.0736 for the second.

“TAGACGACTTGGGTTCTAACCTGTTGCTT (site TAGTCGACTAA)” and “TAGACTACTTGGGTTCTAACCTGTTGCCT (site CAGACTCCTAG)” are within 0.2 log units of each other in “recombinant barcode read abundance (log10)” value: 0.086 for the first, 0.055 for the second.

Compared with “TAGACTACTTGGGTTCTAACCTGTTGCCT (site TAGACTACTAG)”, “TAGACTACTTGGGTTCTAACCTGTTGCTC (site TAGACTACTAA)” is lower in “recombinant barcode read abundance (log10)” value: 0.521 for the first, 0 for the second.

“TAGACTACTTGGGTTCTAACCTGTTGCTC (site TAGACTACTCA)” and “TAGACTACTTGGGTTCTAACCTGTTGCTC (site TAGACTACTGA)” are within 0.2 log units of each other in “recombinant barcode read abundance (log10)” value: 0.082 for the first, 0.123 for the second.

“TAGACTACTTGGGTTCTAACCTGTTGCTC (site TAGACTACTTA)” and “TAGACTACTTGGGTTCTAACCTGTTGCTG (site TAGACTACTAA)” are within 0.2 log units of each other in “recombinant barcode read abundance (log10)” value: 0.0392 for the first, 0.0928 for the second.

Compared with “TAGACTACTTGGGTTCTAACCTGTTGCTG (site TAGACTACTCA)”, “TAGACTACTTGGGTTCTAACCTGTTGCTG (site TAGACTACTGA)” is lower in “recombinant barcode read abundance (log10)” value: 0.609 for the first, 0.215 for the second.

“TAGACTACTTGGGTTCTAACCTGTTGCTG (site TAGACTACTTA)” and “TAGAGCACTTGGGTTCTAACCTGTTGCCT (site AAGAGCACTAG)” are within 0.2 log units of each other in “recombinant barcode read abundance (log10)” value: 0.0595 for the first, 0.057 for the second.

“TAGAGCACTTGGGTTCTAACCTGTTGCCT (site CAGAGCACTAG)” and “TAGAGCACTTGGGTTCTAACCTGTTGCCT (site GAGAGCACTAG)” are within 0.2 log units of each other in “recombinant barcode read abundance (log10)” value: 0.114 for the first, 0.0873 for the second.

“TAGAGCACTTGGGTTCTAACCTGTTGCCT (site TAGAGCACTAG)” and “TAGATCACTTGGGTTCTAACCTGTTGCAT (site TAGATCACTAT)” are within 0.2 log units of each other in “recombinant barcode read abundance (log10)” value: 0.644 for the first, 0.629 for the second.

First: TAGATCACTTGGGTTCTAACCTGTTGCAT (site TAGCTCACTAT)
Second: TAGATCACTTGGGTTCTAACCTGTTGCAT (site TAGGTCACTAT)
The “recombinant barcode read abundance (log10)” value of the first is higher: 0.408 for the first, 0.0386 for the second.

“TAGATCACTTGGGTTCTAACCTGTTGCAT (site TAGTTCACTAT)” and “TAGATTACTTGGGTTCTAACCTGTTGCCT (site TAAAATACTAG)” are within 0.2 log units of each other in “recombinant barcode read abundance (log10)” value: 0.0464 for the first, 0.12 for the second.

“TAGATTACTTGGGTTCTAACCTGTTGCCT (site TAGATTACTAG)” and “TAGATTCCTTGGGTTCTAACCTGTTGCAA (site CGACAGTCTAG)” are within 0.2 log units of each other in “recombinant barcode read abundance (log10)” value: 0.178 for the first, 0.102 for the second.

First: TAGATTCCTTGGGTTCTAACCTGTTGCAA (site TAGATTCCTTT)
Second: TAGCACCCTTGGGTTCTAACCTGTTGCCA (site TAGCACCCTAG)
The “recombinant barcode read abundance (log10)” value of the first is lower: 0.0712 for the first, 0.394 for the second.

“TAGCACCCTTGGGTTCTAACCTGTTGCCA (site TAGCACCCTCG)” and “TAGCACCCTTGGGTTCTAACCTGTTGCCA (site TAGCACCCTGG)” are within 0.2 log units of each other in “recombinant barcode read abundance (log10)” value: 0.218 for the first, 0.156 for the second.

First: TAGCACCCTTGGGTTCTAACCTGTTGCCA (site TAGCACCCTTG)
Second: TAGCACCCTTGGGTTCTAACCTGTTGCCT (site TAGCACCCTAG)
The “recombinant barcode read abundance (log10)” value of the first is lower: 0.965 for the first, 1.79 for the second.

First: TAGCACCCTTGGGTTCTAACCTGTTGCCT (site TAGCACCCTCG)
Second: TAGCACCCTTGGGTTCTAACCTGTTGCCT (site TAGCACCCTGG)
The “recombinant barcode read abundance (log10)” value of the first is lower: 0.0128 for the first, 0.671 for the second.
